# Measurements taken from patent publication US20090018194A1, “Use of antimicrobial agents derived from alliaceous plants for the prevention and control of crop diseases, post-harvest rot and as environmental disinifectant products” (DMC Research Center, S.L., priority 2007, published 2009).
# Experiments:
# [1] = test system: Penicillium sp. (CPC-PT-2); test: agar diffusion test, wild fungi isolated from crown rot in bananas; type: cell-based; settings: incl. 6 mm disc
# [2] = test system: Penicillium sp. (CPC-PT-3); test: as above; type: cell-based; settings: incl. 6 mm disc
# [3] = test system: Penicillium italicum Wild strain Supplied by UdL-IRTA; test: agar diffusion test, wild phytopathogens isolated from citrus rot; type: cell-based; settings: incl. 6 mm disc
# [4] = test system: Escherichia coli CECT 515; test: agar diffusion test with impregnated cellulose discs; type: cell-based; settings: incl. 6 mm disc
# [5] = test system: Micrococcus luteus ATCC 15307; test: as above; type: cell-based; settings: incl. 6 mm disc
# [6] = test system: Penicillium italicum CECT 2294; test: as above; type: cell-based; settings: incl. 6 mm disc
# [7] = test system: Bacillus megaterium ATCC 33085; test: as above; type: cell-based; settings: incl. 6 mm disc
# [8] = test system: Listeria monocytogenes CECT 4032; test: as above; type: cell-based; settings: incl. 6 mm disc
# [9] = test system: Phytophthora citrophthora CECT 2353; test: agar diffusion test, wild phytopathogens isolated from citrus rot; type: cell-based; settings: incl. 6 mm disc
# [10] = test system: Penicillium digitatum Wild strain Supplied by UdL-IRTA; test: as above; type: cell-based; settings: incl. 6 mm disc
# [11] = test system: Candida magnoliae DSMZ 70638; test: agar diffusion test with impregnated cellulose discs; type: cell-based; settings: incl. 6 mm disc
# Penicillium expansum [12] = test: post-harvest rotting of inoculated apples, drencher treatment; type: in vivo; settings: 15 days of refrigeration at 5-6° C.
# Protocol: (§1) The effectiveness of the active principle PTS (in various individual doses) was studied in the control of post-harvest rotting of pears and apples caused by the fungi Botrytis cinerea and Penicillium expansum, the principal agents of diseases in these fruits. These phytopathogens can appear in fruit being stored in a cold room and, once in the processing plant and in a later phase, form colonies and are transferred from one fruit to another by contact. The study was performed by means of a controlled inoculation test to ensure a high percentage of affected fruits, and to guarantee that this level of infection is with certainty caused by these pathogens, thereby making it possible to detect and evaluate significant differences between the different treatments. […] To perform the controlled inoculation, wild strains of Botrytris cinerea and Penicillium expansum were used which were isolated in fruit and vegetable processing plants. […] After the time indicated above had passed, the various post-harvest treatments were carried out by means of […] 25° C. for 60 seconds.
# Botrytis cinerea [13] = test: as above; type: in vivo; settings: 15 days of refrigeration at 5-6° C.
# Protocol: as §1
# [14] = test system: Candida krusei ATCC 34135; test: agar diffusion test with impregnated cellulose discs; type: cell-based; settings: incl. 6 mm disc
# Penicillium expansum [15] = test: post-harvest rotting of inoculated pears, drencher treatment; type: in vivo; settings: 15 days of refrigeration at 5-6° C.
# Protocol: as §1
# Botrytis cinerea [16] = test: as above; type: in vivo; settings: 15 days of refrigeration at 5-6° C.
# Protocol: as §1
# [17] = test system: Saccharomyces cerevisiae CECT 1324; test: agar diffusion test with impregnated cellulose discs; type: cell-based; settings: incl. 6 mm disc
smiles,measurement,setting,value
"CCCS[S+]([O-])CCC (centres unmarked) [PTS, Propyl Propyl Thiosulfinate]",diameter of the microbial inhibition halo,[1]; 30 ppm,0 mm
same,diameter of the microbial inhibition halo,[1]; 60 ppm,0 mm
same,diameter of the microbial inhibition halo,[1]; 125 ppm,0 mm
same,diameter of the microbial inhibition halo,[1]; 250 ppm,15 mm
same,diameter of the microbial inhibition halo,[1]; 500 ppm,25 mm
same,diameter of the microbial inhibition halo,[1]; 1000 ppm,25 mm
same,diameter of the microbial inhibition halo,[2]; 30 ppm,0 mm
same,diameter of the microbial inhibition halo,[2]; 60 ppm,0 mm
same,diameter of the microbial inhibition halo,[2]; 125 ppm,10 mm
same,diameter of the microbial inhibition halo,[2]; 250 ppm,13 mm
same,diameter of the microbial inhibition halo,[2]; 500 ppm,15 mm
same,diameter of the microbial inhibition halo,[2]; 1000 ppm,17 mm
same,diameter of the microbial inhibition halo,[3]; 30 ppm,0 mm
same,diameter of the microbial inhibition halo,[3]; 60 ppm,0 mm
same,diameter of the microbial inhibition halo,[3]; 125 ppm,13 mm
same,diameter of the microbial inhibition halo,[3]; 250 ppm,13 mm
same,diameter of the microbial inhibition halo,[3]; 500 ppm,15 mm
same,diameter of the microbial inhibition halo,[3]; 1000 ppm,20 mm
same,diameter of the microbial inhibition halo,[4]; 25 ppm,14 mm
same,diameter of the microbial inhibition halo,[4]; 50 ppm,17 mm
same,diameter of the microbial inhibition halo,[4]; 100 ppm,21 mm
same,diameter of the microbial inhibition halo,[5]; 25 ppm,19 mm
same,diameter of the microbial inhibition halo,[5]; 50 ppm,25 mm
same,diameter of the microbial inhibition halo,[5]; 100 ppm,32 mm
same,diameter of the microbial inhibition halo,[6]; 25 ppm,22 mm
same,diameter of the microbial inhibition halo,[6]; 50 ppm,26 mm
same,diameter of the microbial inhibition halo,[6]; 100 ppm,34 mm
same,diameter of the microbial inhibition halo,[7]; 25 ppm,23 mm
same,diameter of the microbial inhibition halo,[7]; 50 ppm,27 mm
same,diameter of the microbial inhibition halo,[7]; 100 ppm,34 mm
same,diameter of the microbial inhibition halo,[8]; 25 ppm,18 mm
same,diameter of the microbial inhibition halo,[8]; 50 ppm,24 mm
same,diameter of the microbial inhibition halo,[8]; 100 ppm,30 mm
same,diameter of the microbial inhibition halo,[9]; 30 ppm,10 mm
same,diameter of the microbial inhibition halo,[9]; 60 ppm,21 mm
same,diameter of the microbial inhibition halo,[9]; 125 ppm,23 mm
same,diameter of the microbial inhibition halo,[9]; 250 ppm,42 mm
same,diameter of the microbial inhibition halo,[9]; 500 ppm,53 mm
same,diameter of the microbial inhibition halo,[9]; 1000 ppm,55 mm
same,diameter of the microbial inhibition halo,[10]; 30 ppm,12 mm
same,diameter of the microbial inhibition halo,[10]; 60 ppm,15 mm
same,diameter of the microbial inhibition halo,[10]; 125 ppm,20 mm
same,diameter of the microbial inhibition halo,[10]; 250 ppm,33 mm
same,diameter of the microbial inhibition halo,[10]; 500 ppm,40 mm
same,diameter of the microbial inhibition halo,[10]; 1000 ppm,41 mm
same,diameter of the microbial inhibition halo,[11]; 25 ppm,22 mm
same,diameter of the microbial inhibition halo,[11]; 50 ppm,30 mm
same,diameter of the microbial inhibition halo,[11]; 100 ppm,38 mm
same,% of fruit affected,"Penicillium expansum [12]; Golden Delicious, 500 ppm",1.4%
same,% of fruit affected,"Penicillium expansum [12]; Golden Delicious, 666 ppm",0.5%
same,% of fruit affected,"Penicillium expansum [12]; Golden Delicious, 833 ppm",2.5%
same,% of fruit affected,"Penicillium expansum [12]; Golden Delicious, 1666 ppm",0.7%
same,% of fruit affected,"Penicillium expansum [12]; Red Chief, 500 ppm",2.8%
same,% of fruit affected,"Penicillium expansum [12]; Red Chief, 666 ppm",0%
same,% of fruit affected,"Penicillium expansum [12]; Red Chief, 833 ppm",3.2%
same,% of fruit affected,"Penicillium expansum [12]; Red Chief, 1666 ppm",2.4%
same,% of fruit affected,"Botrytis cinerea [13]; Golden Delicious, 500 ppm",0.5%
same,% of fruit affected,"Botrytis cinerea [13]; Golden Delicious, 666 ppm",0%
same,% of fruit affected,"Botrytis cinerea [13]; Golden Delicious, 833 ppm",1%
same,% of fruit affected,"Botrytis cinerea [13]; Golden Delicious, 1666 ppm",0%
same,% of fruit affected,"Botrytis cinerea [13]; Red Chief, 500 ppm",1%
same,% of fruit affected,"Botrytis cinerea [13]; Red Chief, 666 ppm",0%
same,% of fruit affected,"Botrytis cinerea [13]; Red Chief, 833 ppm",1.5%
same,% of fruit affected,"Botrytis cinerea [13]; Red Chief, 1666 ppm",0%
same,diameter of the microbial inhibition halo,[14]; 25 ppm,14 mm
same,diameter of the microbial inhibition halo,[14]; 50 ppm,18 mm
same,diameter of the microbial inhibition halo,[14]; 100 ppm,29 mm
same,% of fruit affected,"Penicillium expansum [15]; Decana, 500 ppm",0%
same,% of fruit affected,"Penicillium expansum [15]; Decana, 666 ppm",2%
same,% of fruit affected,"Penicillium expansum [15]; Decana, 833 ppm",0%
same,% of fruit affected,"Penicillium expansum [15]; Decana, 1666 ppm",3%
same,% of fruit affected,"Penicillium expansum [15]; Flor de invierno, 500 ppm",3.6%
same,% of fruit affected,"Penicillium expansum [15]; Flor de invierno, 666 ppm",2.2%
same,% of fruit affected,"Penicillium expansum [15]; Flor de invierno, 833 ppm",2.4%
same,% of fruit affected,"Penicillium expansum [15]; Flor de invierno, 1666 ppm",5.3%
same,% of fruit affected,"Botrytis cinerea [16]; Decana, 500 ppm",0%
same,% of fruit affected,"Botrytis cinerea [16]; Decana, 666 ppm",0%
same,% of fruit affected,"Botrytis cinerea [16]; Decana, 833 ppm",1%
same,% of fruit affected,"Botrytis cinerea [16]; Decana, 1666 ppm",0.5%
same,% of fruit affected,"Botrytis cinerea [16]; Flor de invierno, 500 ppm",3.5%
same,% of fruit affected,"Botrytis cinerea [16]; Flor de invierno, 666 ppm",0.4%
same,% of fruit affected,"Botrytis cinerea [16]; Flor de invierno, 833 ppm",3.7%
same,% of fruit affected,"Botrytis cinerea [16]; Flor de invierno, 1666 ppm",3%
same,diameter of the microbial inhibition halo,[17]; 25 ppm,28 mm
same,diameter of the microbial inhibition halo,[17]; 50 ppm,32 mm
same,diameter of the microbial inhibition halo,[17]; 100 ppm,44 mm
